{
  "source": "patent US7812050B2",
  "about": "“Polymorphic form of fluoro-7-(2,2,2-trifluoroethoxy) phenoxathiin-10,10-dioxide” (CeNeRx BioPharma, Inc., priority 2006, dated 2010)",
  "key": {"[1]": {"assay": "Particle size by light diffraction (Sympatec HELOS, dry powder dispersion)", "assay_type": "physicochemical", "procedure": "Dispersion was performed on a sample of Form A of 3-fluoro-7-(2,2,2-trifluoroethoxy)phenoxathiin-10,10-dioxide produced accordance with the method presented in Example 4. Dispersion pressure of 0.5 to 2.0 bar was used to disperse the sample particles. Samples were analyzed by microscopy prior to particle size analysis to assess aggregation and estimate particle size, and without fracturing primary particles or causing aggregation. […] Particle size was measured using a Sympatec HELOS equipped with VIERI dry powder feeder unit, and sample measurements for optimization of jet pressure and repeatability were performed according to USP<429>, Method Validation Protocol ANC00756, and TM-1509 Rev.00 (draft)."}, "[2]": {"assay": "Dissolution temperature in 10% (v/v) water in acetic acid", "assay_type": "physicochemical", "details": "ratio (w/v) of compound to solvent about 1.6 g: 10 mL"}},
  "data": [
    {"smiles": "O=S1(=O)c2ccc(F)cc2Oc2cc(OCC(F)(F)F)ccc21", "note": "[Form A, 3-fluoro-7-(2,2,2-trifluoroethoxy)phenoxathiin-10,10-dioxide]", "values": [
      {"measurement": "x10", "setting": "[1]; Dispersion Pressure 0.5 bar", "result": 3.05, "unit": "μm"},
      {"measurement": "x50", "setting": "[1]; Dispersion Pressure 0.5 bar", "result": 9.07, "unit": "μm"},
      {"measurement": "x90", "setting": "[1]; Dispersion Pressure 0.5 bar", "result": 24.49, "unit": "μm"},
      {"measurement": "x10", "setting": "[1]; Dispersion Pressure 1 bar", "result": 2.54, "unit": "μm"},
      {"measurement": "x50", "setting": "[1]; Dispersion Pressure 1 bar", "result": 7.96, "unit": "μm"},
      {"measurement": "x90", "setting": "[1]; Dispersion Pressure 1 bar", "result": 19.32, "unit": "μm"},
      {"measurement": "x10", "setting": "[1]; Dispersion Pressure 1.5 bar", "result": 2.21, "unit": "μm"},
      {"measurement": "x50", "setting": "[1]; Dispersion Pressure 1.5 bar", "result": 7.35, "unit": "μm"},
      {"measurement": "x90", "setting": "[1]; Dispersion Pressure 1.5 bar", "result": 17.1, "unit": "μm"},
      {"measurement": "x10", "setting": "[1]; Dispersion Pressure 2 bar", "result": 1.94, "unit": "μm"},
      {"measurement": "x50", "setting": "[1]; Dispersion Pressure 2 bar", "result": 6.88, "unit": "μm"},
      {"measurement": "x90", "setting": "[1]; Dispersion Pressure 2 bar", "result": 15.32, "unit": "μm"},
      {"measurement": "temperature at which the form dissolves", "setting": "[2]", "result": "75-85 °C"}
    ]}
  ]
}
